# According to PubChem BioAssay (NCI):
#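 Following 48 hours of exposure in 96-well plates, responses at five concentrations were used to interpolate endpoints linearly. TGI: concentration producing complete growth inhibition.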
# Key:
# Test in all cases: NCI tumour cell line growth inhibition, 48 h
# MALME-3M melanoma = test system: MALME-3M melanoma
# SF-295 CNS = test system: SF-295 CNS
# SN12C renal = test system: SN12C renal
# OVCAR-4 ovarian = test system: OVCAR-4 ovarian
# SR leukemia = test system: SR leukemia
# PC-3 prostate = test system: PC-3 prostate
# BT-549 breast = test system: BT-549 breast
# RXF 393 renal = test system: RXF 393 renal
# SK-MEL-28 melanoma = test system: SK-MEL-28 melanoma
# NCI-H522 lung = test system: NCI-H522 lung
# UACC-62 melanoma = test system: UACC-62 melanoma
# NCI-H226 lung = test system: NCI-H226 lung
# UO-31 renal = test system: UO-31 renal
# MOLT-4 leukemia = test system: MOLT-4 leukemia
# IGROV1 ovarian = test system: IGROV1 ovarian
# SK-MEL-5 melanoma = test system: SK-MEL-5 melanoma
# SK-MEL-2 melanoma = test system: SK-MEL-2 melanoma
# T-47D breast = test system: T-47D breast
# MDA-N = test system: MDA-N
# TK-10 renal = test system: TK-10 renal
# SNB-75 CNS = test system: SNB-75 CNS
# ACHN renal = test system: ACHN renal
# OVCAR-8 ovarian = test system: OVCAR-8 ovarian
# EKVX NSCLC = test system: EKVX NSCLC
# MDA-MB-435 = test system: MDA-MB-435
# UACC-257 melanoma = test system: UACC-257 melanoma
# COLO 205 colon = test system: COLO 205 colon
# SF-539 CNS = test system: SF-539 CNS
# MDA-MB-231 breast = test system: MDA-MB-231 breast
# M14 melanoma = test system: M14 melanoma
# K-562 leukemia = test system: K-562 leukemia
# 786-0 renal = test system: 786-0 renal
# HT29 colon = test system: HT29 colon
# SF-268 CNS = test system: SF-268 CNS
# SNB-19 CNS = test system: SNB-19 CNS
# NCI-H460 lung = test system: NCI-H460 lung
# SK-OV-3 ovarian = test system: SK-OV-3 ovarian
# MCF7 breast = test system: MCF7 breast
# OVCAR-5 ovarian = test system: OVCAR-5 ovarian
# HCC-2998 colon = test system: HCC-2998 colon
# RPMI-8226 leukemia = test system: RPMI-8226 leukemia
# HCT-15 colon = test system: HCT-15 colon
# DU-145 prostate = test system: DU-145 prostate
# SW-620 colon = test system: SW-620 colon
# OVCAR-3 ovarian = test system: OVCAR-3 ovarian
# KM12 colon = test system: KM12 colon
# A498 renal = test system: A498 renal
# NCI/ADR-RES ovarian = test system: NCI/ADR-RES ovarian
# CAKI-1 renal = test system: CAKI-1 renal
# NCI-H23 lung = test system: NCI-H23 lung
# LOX IMVI melanoma = test system: LOX IMVI melanoma
# HCT-116 colon = test system: HCT-116 colon
# HOP-62 NSCLC = test system: HOP-62 NSCLC
# CCRF-CEM leukemia = test system: CCRF-CEM leukemia
# HOP-92 NSCLC = test system: HOP-92 NSCLC
# A549 NSCLC = test system: A549 NSCLC
# U251 CNS = test system: U251 CNS
structure (smiles),measurement,setting,value
C[n+]1cc2cc(O)c(O)cc2c2ccc3cc(O)c(O)cc3c21,TGI,MALME-3M melanoma,12.9 µM
same,TGI,SF-295 CNS,38.8 µM
same,TGI,SN12C renal,26 µM
same,TGI,OVCAR-4 ovarian,> 100 µM
same,TGI,SR leukemia,9.53 µM
same,TGI,PC-3 prostate,34.4 µM
same,TGI,BT-549 breast,9.93 µM
same,TGI,RXF 393 renal,9.34 µM
same,TGI,SK-MEL-28 melanoma,> 100 µM
same,TGI,NCI-H522 lung,3.43 µM
same,TGI,UACC-62 melanoma,5.34 µM
same,TGI,NCI-H226 lung,> 48.2 µM
same,TGI,UO-31 renal,5.61 µM
same,TGI,MOLT-4 leukemia,11.2 µM
same,TGI,IGROV1 ovarian,4.75 µM
same,TGI,SK-MEL-5 melanoma,> 54.8 µM
same,TGI,SK-MEL-2 melanoma,12 µM
same,TGI,T-47D breast,> 100 µM
same,TGI,MDA-N,> 100 µM
same,TGI,TK-10 renal,> 73.2 µM
same,TGI,SNB-75 CNS,59.3 µM
same,TGI,ACHN renal,> 100 µM
same,TGI,OVCAR-8 ovarian,11.4 µM
same,TGI,EKVX NSCLC,> 100 µM
same,TGI,MDA-MB-435,> 100 µM
same,TGI,UACC-257 melanoma,> 100 µM
same,TGI,COLO 205 colon,> 84.5 µM
same,TGI,SF-539 CNS,7.77 µM
same,TGI,MDA-MB-231 breast,> 100 µM
same,TGI,M14 melanoma,> 100 µM
same,TGI,K-562 leukemia,> 37.4 µM
same,TGI,786-0 renal,9.21 µM
same,TGI,HT29 colon,66.9 µM
same,TGI,SF-268 CNS,13.5 µM
same,TGI,SNB-19 CNS,16.5 µM
same,TGI,NCI-H460 lung,> 60.2 µM
same,TGI,SK-OV-3 ovarian,> 53 µM
same,TGI,MCF7 breast,9.09 µM
same,TGI,OVCAR-5 ovarian,> 100 µM
same,TGI,HCC-2998 colon,> 57.6 µM
same,TGI,RPMI-8226 leukemia,> 100 µM
same,TGI,HCT-15 colon,> 34.2 µM
same,TGI,DU-145 prostate,> 100 µM
same,TGI,SW-620 colon,> 100 µM
same,TGI,OVCAR-3 ovarian,7.96 µM
same,TGI,KM12 colon,> 100 µM
same,TGI,A498 renal,11.8 µM
same,TGI,NCI/ADR-RES ovarian,6.67 µM
same,TGI,CAKI-1 renal,> 37.3 µM
same,TGI,NCI-H23 lung,18.3 µM
same,TGI,LOX IMVI melanoma,18.3 µM
same,TGI,HCT-116 colon,4.21 µM
same,TGI,HOP-62 NSCLC,10.8 µM
same,TGI,CCRF-CEM leukemia,6.17 µM
same,TGI,HOP-92 NSCLC,11.5 µM
same,TGI,A549 NSCLC,> 100 µM
same,TGI,U251 CNS,9.91 µM
